The IC50 is the concentration needed to halve the response being measured. A low value points to greater potency in that assay. As a reminder, the MIC99 is the lowest concentration that inhibits either 99% of growth or 99% of the strains tested, depending on the study. Read a high MIC99 as lower susceptibility.

SMILES strings stand for the structures. In brackets after ≈: the same amount, converted by molar mass. Activity calls are given as the source filed them. The rule behind the calls is not given here. Some results are limits rather than exact numbers.

The test system of assay [1] is A549. Briefly: Cytotoxicity against human A549 cell line. The format is functional, cell-based.
The test system of assay [2] is MCF7. As to the kind of experiment: Cytotoxicity against human MCF7 cell line. The format is functional, cell-based.
For assay [3], the system named is Mycobacterium tuberculosis. Briefly: Antimicrobial activity against Mycobacterium tuberculosis IMCJ946.K2. The format is functional.
Assay [4] relates to Mycobacterium tuberculosis. As to the kind of experiment: Antimicrobial activity against Mycobacterium tuberculosis H37Rv. Format: functional.
Assay [5] has as its target T1, Cell division protein FtsZ (Mycobacterium tuberculosis) (UniProt P9WN95).
T1 sequence (whole entry): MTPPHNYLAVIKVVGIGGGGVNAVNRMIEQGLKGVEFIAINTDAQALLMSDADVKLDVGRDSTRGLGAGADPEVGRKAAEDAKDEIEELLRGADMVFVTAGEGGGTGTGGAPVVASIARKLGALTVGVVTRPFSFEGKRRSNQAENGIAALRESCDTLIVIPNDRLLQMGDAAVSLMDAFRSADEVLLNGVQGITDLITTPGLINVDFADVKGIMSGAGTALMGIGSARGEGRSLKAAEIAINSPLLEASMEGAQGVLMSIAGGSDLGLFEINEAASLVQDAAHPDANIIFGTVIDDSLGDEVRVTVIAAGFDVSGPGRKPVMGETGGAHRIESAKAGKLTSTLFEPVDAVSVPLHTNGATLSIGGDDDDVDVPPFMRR
As to the kind of experiment: FtsZ inactivation in MTB cells at MIC. The format is cell-based.

Take `CC(=O)O[C@@]12CO[C@@H]1C[C@H](O)[C@@]1(C)C(=O)[C@H](O)C3=C(C)[C@@H](OC(=O)/C=C/c4cccc5ccccc45)C[C@@](O)([C@@H](OC(=O)c4ccccc4)[C@H]21)C3(C)C`: the half-inhibitory concentration (IC50) in assay [1] came out at 80 µM; in assay [2], 5.4 µM. In addition, the MIC99 in assay [3] and in assay [4] was 5 µM (≈ 3.62 µg/mL) each time.
As for `CCCCCC(=O)O[C@H]1C(=O)[C@@]2(C)[C@H]([C@H](OC(=O)c3ccccc3)[C@]3(O)C[C@H](OC(=O)[C@H](O)[C@@H](NC(=O)c4ccccc4)c4ccccc4)C(C)=C1C3(C)C)[C@]1(OC(C)=O)CO[C@@H]1C[C@@H]2O`, the IC50 in assay [1] and in assay [2] was 0.65 µM in each case. Further, the MIC99 is 1.25 µM (≈ 1.14 µg/mL) in assay [3] and 5 µM (≈ 4.55 µg/mL) in assay [4].
Take `CCN(CC)CCC(=O)O[C@H]1C(=O)[C@@]2(C)[C@H]([C@H](OC(=O)c3ccccc3)[C@]3(O)C[C@H](OC(=O)/C=C/c4ccc5ccccc5c4)C(C)=C1C3(C)C)[C@]1(OC(C)=O)CO[C@@H]1C[C@@H]2O`: the half-inhibitory concentration (IC50) in assay [1] is 9.6 µM; in assay [2] it was 3.9 µM. Also, the MIC99 in assay [3] is 5 µM (≈ 4.26 µg/mL); in assay [4], 10 µM (≈ 8.52 µg/mL).
Consider `CCN(CC)CCC(=O)O[C@H]1C[C@H]2OC[C@@]2(OC(C)=O)[C@H]2[C@H](OC(=O)c3ccccc3)[C@]3(O)C[C@H](OC(=O)/C=C/c4ccc5ccccc5c4)C(C)=C([C@@H](OC(C)=O)C(=O)[C@]12C)C3(C)C`, for which the IC50 in assay [1] amounted to 17 µM; in assay [2] it was 9.4 µM. Further, the MIC99 in assay [3] came out at 20 µM (≈ 17.9 µg/mL); in assay [4], 10 µM (≈ 8.94 µg/mL).
On to `CC(=O)O[C@@]12CO[C@@H]1C[C@H](O)[C@@]1(C)C(=O)[C@H](O)C3=C(C)[C@@H](OC(=O)/C=C/c4ccc(Sc5ccccc5)cc4)C[C@@](O)([C@@H](OC(=O)c4ccccc4)[C@H]21)C3(C)C`, for which the IC50 in assay [1] is 4.5 µM; in assay [2] it was 3.4 µM. The MIC99 in assay [3] and in assay [4] was 2.5 µM (≈ 1.96 µg/mL) in each case.
For the compound `CC(=O)O[C@@]1([C@@H]2/C(C)=C(/O)C(=O)C3=C(C)[C@@H](OC(=O)/C=C/c4ccc(Oc5ccccc5)cc4)C[C@@](O)([C@H]2OC(=O)c2ccccc2)C3(C)C)CO[C@@H]1CCO`, the IC50 in assay [1] and in assay [2] was > 80 µM throughout. The results for the MIC99 in assay [3] and in assay [4] were 1.25 µM (≈ 0.959 µg/mL) and 2.5 µM (≈ 1.92 µg/mL), respectively.
Regarding `CC(=O)O[C@@]12CO[C@@H]1C[C@H](O)[C@@]1(C)C(=O)[C@H](OC(=O)CN(C)C)C3=C(C)[C@@H](OC(=O)/C=C/c4ccc5ccccc5c4)C[C@@](O)([C@@H](OC(=O)c4ccccc4)[C@H]21)C3(C)C`, the IC50 in assay [1] was found to be 10.8 µM; in assay [2] it was 7 µM. Besides, the MIC99 in assay [3] and in assay [4] was 10 µM (≈ 8.1 µg/mL) in each case.
In the case of `CC(=O)O[C@@]12CO[C@@H]1C[C@H](O)[C@@]1(C)C(=O)[C@H](OC(=O)N(C)C)C3=C(C)[C@@H](OC(=O)/C=C/c4ccc5ccccc5c4)C[C@@](O)([C@@H](OC(=O)c4ccccc4)[C@H]21)C3(C)C`, in assay [5], the result was Active.
Consider `CC(=O)O[C@@]12CO[C@@H]1C[C@H](OC(=O)CN(C)C)[C@@]1(C)C(=O)[C@H](O)C3=C(C)[C@@H](OC(=O)/C=C/c4ccc5ccccc5c4)C[C@@](O)([C@@H](OC(=O)c4ccccc4)[C@H]21)C3(C)C`, for which the 50% inhibitory concentration (IC50) in assay [1] was 4.3 µM; in assay [2] it was > 20 µM. Besides, the values for the MIC99 in assay [3] and in assay [4] were 5 µM (≈ 4.05 µg/mL) and 20 µM (≈ 16.2 µg/mL), respectively.
Turning to `CC(=O)O[C@@]12CO[C@@H]1C[C@H](O)[C@@]1(C)C(=O)[C@H](O)C3=C(C)[C@@H](OC(=O)/C=C/c4ccc5ccccc5c4)C[C@@](O)([C@@H](OC(=O)c4ccccc4)[C@H]21)C3(C)C`, the IC50 in assay [1] worked out at 15.7 µM; in assay [2] it was 4.5 µM. For the same compound, the MIC99 in assay [3] was found to be 2.5 µM (≈ 1.81 µg/mL); in assay [4] it was 5 µM (≈ 3.62 µg/mL).
`CC(=O)O[C@@]1([C@@H]2/C(C)=C(/O)C(=O)C3=C(C)[C@@H](OC(=O)/C=C/c4ccc5ccccc5c4)C[C@@](O)([C@H]2OC(=O)c2ccccc2)C3(C)C)CO[C@@H]1CCO`: the IC50 in assay [1] and in assay [2] was > 80 µM in each case. The figures for the MIC99 in assay [3] and in assay [4] were 1.25 µM (≈ 0.906 µg/mL) and 2.5 µM (≈ 1.81 µg/mL), respectively. In assay [5], the result was Active.
Regarding `CC(=O)O[C@@]12CO[C@@H]1C[C@H](O)[C@@]1(C)C(=O)[C@H](O)C3=C(C)[C@@H](OC(=O)/C=C/c4ccc(Oc5ccccc5)cc4)C[C@@](O)([C@@H](OC(=O)c4ccccc4)[C@H]21)C3(C)C`, the concentration for half-maximal inhibition (IC50) was found to be 12.5 µM in assay [1] and 9.3 µM in assay [2]. The MIC99 in assay [3] and in assay [4] was 10 µM (≈ 7.67 µg/mL) throughout.
With `COc1ccc(C(=O)O[C@H]2[C@@H]3[C@]4(OC(C)=O)CO[C@@H]4C[C@H](O)[C@@]3(C)C(=O)[C@H](O)C3=C(C)[C@@H](OC(=O)/C=C/c4ccc5ccccc5c4)C[C@]2(O)C3(C)C)cc1`, the IC50 amounted to 14 µM in assay [1] and 7.6 µM in assay [2]. For the same compound, the MIC99 in assay [3] was 2.5 µM (≈ 1.89 µg/mL); in assay [4] it was 5 µM (≈ 3.77 µg/mL).
Regarding `COc1ccc2cc(/C=C/C(=O)O[C@H]3C[C@@]4(O)[C@@H](OC(=O)c5ccccc5)[C@H]([C@]5(OC(C)=O)CO[C@@H]5CCO)/C(C)=C(/O)C(=O)C(=C3C)C4(C)C)ccc2c1`, the IC50 in assay [1] and in assay [2] was > 80 µM throughout. The MIC99 in assay [3] and in assay [4] was 2.5 µM (≈ 1.89 µg/mL) in each case.
Take `COc1ccc2cc(/C=C/C(=O)O[C@H]3C[C@@]4(O)[C@@H](OC(=O)c5ccccc5)[C@@H]5[C@]6(OC(C)=O)CO[C@@H]6C[C@H](O)[C@@]5(C)C(=O)[C@H](O)C(=C3C)C4(C)C)ccc2c1`: the IC50 in assay [1] worked out at 5 µM; in assay [2], 5.3 µM. Also, the MIC99 in assay [3] and in assay [4] was 5 µM (≈ 3.77 µg/mL) throughout.
In assay [2], `CC(=O)O[C@@]12CO[C@@H]1C[C@H](O)[C@@]1(C)C(=O)[C@H](OC(=O)/C=C/c3ccc4ccccc4c3)C3=C(C)[C@@H](O)C[C@@](O)([C@@H](OC(=O)c4ccccc4)[C@H]21)C3(C)C` showed an IC50 of 14 µM. Also, the values for the MIC99 in assay [3] and in assay [4] were 10 µM (≈ 7.25 µg/mL) and 20 µM (≈ 14.5 µg/mL), respectively.
On to `CC(=O)O[C@H]1C(=O)[C@@]2(C)[C@H]([C@H](OC(=O)c3ccccc3)[C@]3(O)C[C@H](OC(=O)[C@H](O)[C@@H](NC(=O)c4ccccc4)c4ccccc4)C(C)=C1C3(C)C)[C@]1(OC(C)=O)CO[C@@H]1C[C@@H]2O` [PACLITAXEL], for which the results for the IC50 in assay [1] and in assay [2] were 0.028 µM and 0.019 µM, respectively. The MIC99 in assay [3] and in assay [4] was 40 µM (≈ 34.2 µg/mL) in each case.
Turning to `CC(=O)O[C@@]1([C@@H]2/C(C)=C(/O)C(=O)C3=C(C)[C@@H](OC(=O)/C=C/c4ccc(Sc5ccccc5)cc4)C[C@@](O)([C@H]2OC(=O)c2ccccc2)C3(C)C)CO[C@@H]1CCO`, the IC50 in assay [1] and in assay [2] was > 80 µM throughout. Besides, the MIC99 in assay [3] came out at 1.25 µM (≈ 0.979 µg/mL); in assay [4], 2.5 µM (≈ 1.96 µg/mL).
